Laboratory results published in patent US10246429B2, “Vinyl fluoride cyclopropyl fused thiazin-2-amine compounds as beta-secretase inhibitors and methods of use” (AMGEN INC., priority 2015, dated 2019).
Where two headings read alike, the source gives them in different places.

Columns and labels:
BACE2 = BACE2 (Homo sapiens (Human), UniProt Q9Y5Z0); test: In vitro enzymatic BACE2 FRET assay; type: biochemical
From the text: (§1) In Vitro Enzymatic BACE1 and BACE2 FRET (Fluorescence Resonance Energy Transfer) Assays (Enzyme Assay Data in Table 1)

Cathepsin D (CatD) = Cathepsin D (CatD) (Homo sapiens (Human), UniProt P07339); test: CatD assay; type: biochemical; conditions: read-out: IC50 IP (μM) CatD
BACE1 [1] = target: T1, BACE1 (Homo sapiens (Human), UniProt P56817); test: In vitro enzymatic BACE1 FRET assay; type: biochemical
Target sequence in this assay (P56817 46-501): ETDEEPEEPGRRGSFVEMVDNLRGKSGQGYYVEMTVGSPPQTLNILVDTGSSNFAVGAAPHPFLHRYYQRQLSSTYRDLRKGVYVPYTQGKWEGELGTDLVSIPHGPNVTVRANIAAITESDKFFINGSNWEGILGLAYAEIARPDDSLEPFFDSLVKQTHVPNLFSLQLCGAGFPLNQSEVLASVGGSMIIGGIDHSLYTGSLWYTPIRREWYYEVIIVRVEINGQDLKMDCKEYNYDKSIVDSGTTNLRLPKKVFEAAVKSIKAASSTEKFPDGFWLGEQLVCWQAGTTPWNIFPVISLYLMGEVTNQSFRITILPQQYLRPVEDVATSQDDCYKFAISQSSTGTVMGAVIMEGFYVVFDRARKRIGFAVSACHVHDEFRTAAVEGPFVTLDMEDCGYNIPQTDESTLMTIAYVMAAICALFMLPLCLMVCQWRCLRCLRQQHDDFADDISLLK
From the text: as §1

BACE1 [2] = target: T1, BACE1; test: BACE1 cell assay; type: cell-based
Target sequence in this assay (P56817 46-501, species assumed): as the sequence (P56817 46-501) above

[3] = read-out: IC50 IP (μM) BACE2 Enzyme
[4] = read-out: IC50 IP (μM) BACE1 Enzyme
[5] = read-out: IC50 IP (μM) BACE1 Cell

Sequence of Cathepsin D (CatD) (P07339 65-412, species assumed): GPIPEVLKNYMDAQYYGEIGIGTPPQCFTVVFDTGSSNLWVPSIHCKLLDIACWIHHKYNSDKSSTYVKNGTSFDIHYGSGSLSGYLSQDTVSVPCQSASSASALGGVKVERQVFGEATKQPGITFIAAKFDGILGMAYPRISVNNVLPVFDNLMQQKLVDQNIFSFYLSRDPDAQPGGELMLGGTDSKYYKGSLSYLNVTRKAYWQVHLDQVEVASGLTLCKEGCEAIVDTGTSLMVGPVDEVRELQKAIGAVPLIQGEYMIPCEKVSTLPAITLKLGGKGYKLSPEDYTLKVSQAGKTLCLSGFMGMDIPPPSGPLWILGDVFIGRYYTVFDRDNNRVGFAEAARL
Sequence of BACE2 (Q9Y5Z0 63-518): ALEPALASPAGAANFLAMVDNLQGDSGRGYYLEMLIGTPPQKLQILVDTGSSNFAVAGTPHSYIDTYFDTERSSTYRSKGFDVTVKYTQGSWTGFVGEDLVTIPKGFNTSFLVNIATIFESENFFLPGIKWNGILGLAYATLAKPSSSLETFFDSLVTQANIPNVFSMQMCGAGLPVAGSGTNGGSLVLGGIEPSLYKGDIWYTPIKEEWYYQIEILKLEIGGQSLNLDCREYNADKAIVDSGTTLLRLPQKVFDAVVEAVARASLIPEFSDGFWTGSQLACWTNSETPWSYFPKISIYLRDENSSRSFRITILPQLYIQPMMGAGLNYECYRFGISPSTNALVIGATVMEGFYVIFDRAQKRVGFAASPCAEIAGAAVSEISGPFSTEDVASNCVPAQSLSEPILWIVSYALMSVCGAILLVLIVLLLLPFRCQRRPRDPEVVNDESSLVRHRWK

| SMILES | IC50 (BACE2; [3]) [µM] | IC50 (Cathepsin D (CatD)) [µM] | IC50 (BACE1 [1]; [4]) [µM] | IC50 (BACE1 [2]) [µM] | IC50 (BACE1 [2]; [5]) [µM] | IC50 (BACE2) [µM] | IC50 (BACE1 [1]) [µM] |
| --- | --- | --- | --- | --- | --- | --- | --- |
| CNC(=O)[C@]12C[C@H]1[C@@](C)(c1cc(/C=C(\F)c3ccc(C(F)(F)F)cn3)ccc1F)N=C(N)S2 [Example 224, (1S,5S,6S)-3-amino-5-(2-fluoro-5-((Z)-2-fluoro-2-(5-(trifluoromethyl)pyridin-2-yl)vinyl)phenyl)-N,5-dimethyl-2-thia-4-azabicyclo[4.1.0]hept-3-ene-1-carboxamide] | 0.564 | 396 | 0.015 | 0.031 | – | – | – |
| C[C@]1(c2cc(/C=C(\F)c3ccc(C#N)cn3)ccc2F)N=C(N)S[C@@]2(S(C)(=O)=O)C[C@H]21 [Example 233, 6-((Z)-2-(3-((1R,5S,6S)-3-amino-5-methyl-1-(methylsulfonyl)-2-thia-4-azabicyclo[4.1.0]hept-3-en-5-yl)-4-fluorophenyl)-1-fluorovinyl)nicotinonitrile] | 0.014 | 204 | 0.0016 | – | 0.0087 | – | – |
| CC1CCN(C(=O)[C@]23C[C@H]2[C@@](C)(c2cc(/C=C(\F)c4ccc(C#N)cn4)ccc2F)N=C(N)S3)CC1 [Example 147, 6-((Z)-2-(3-((1S,5S,6S)-3-amino-5-methyl-1-(4-methylpiperidine-1-carbonyl)-2-thia-4-azabicyclo[4.1.0]hept-3-en-5-yl)-4-fluorophenyl)-1-fluorovinyl)nicotinonitrile] | 0.00486 | 93.9 | 0.000793 | – | 0.003 | – | – |
| C[C@]1(c2cc(/C=C(\F)c3ccc(C#N)cn3)ccc2F)N=C(N)S[C@@]2(C(=O)N3CCC4(CCO4)C3)C[C@H]21 (stereo partly drawn) [Example 327, 6-((Z)-2-(3-((1S,5S,6S)-3-amino-5-methyl-1-(1-oxa-6-azaspiro[3.4]octane-6-carbonyl)-2-thia-4-azabicyclo[4.1.0]hept-3-en-5-yl)-4-fluorophenyl)-1-fluorovinyl)nicotinonitrile] | 0.028 | 143 | 0.0008 | – | 0.0003 | – | – |
| C[C@@H]1COC[C@H](C)N1C(=O)[C@]12C[C@H]1[C@@](C)(c1cc(/C=C(\F)c3ccc(C#N)cn3)ccc1F)N=C(N)S2 [Example 313, 6-((Z)-2-(3-((1S,5S,6S)-3-amino-1-((3S,5R)-3,5-dimethylmorpholine-4-carbonyl)-5-methyl-2-thia-4-azabicyclo[4.1.0]hept-3-en-5-yl)-4-fluorophenyl)-1-fluorovinyl)nicotinonitrile] | 0.147 | 257 | 0.0019 | – | 0.0022 | – | – |
| C[C@]1(c2cc(/C=C(\F)c3cnc(C#N)cn3)ccc2F)N=C(N)S[C@@]2(C(=O)N3CCCCC3)C[C@H]21 [Example 201, 5-((Z)-2-(3-((1S,5S,6S)-3-amino-5-methyl-1-(piperidine-1-carbonyl)-2-thia-4-azabicyclo[4.1.0]hept-3-en-5-yl)-4-fluorophenyl)-1-fluorovinyl)pyrazine-2-carbonitrile] | 0.074 | 16.7 | 0.001 | – | 0.009 | – | – |
| C[C@@H]1CCN1C(=O)[C@]12C[C@H]1[C@@](C)(c1cc(/C=C(\F)c3ccc(Cl)cn3)ccc1F)N=C(N)S2 [Example 120, ((1S,5S,6S)-3-amino-5-(5-((Z)-2-(5-chloropyridin-2-yl)-2-fluorovinyl)-2-fluorophenyl)-5-methyl-2-thia-4-azabicyclo[4.1.0]hept-3-en-1-yl)((R)-2-methylazetidin-1-yl)methanone] | 0.0108 | 132 | 0.00275 | – | 0.0267 | – | – |
| CN(C)C(=O)[C@]12C[C@H]1[C@@](C)(c1cc(/C=C(\F)c3cnc(OCc4ncco4)cn3)ccc1F)N=C(N)S2 [Example 154, (1S,5S,6S)-3-amino-5-(2-fluoro-5-((Z)-2-fluoro-2-(5-(oxazol-2-ylmethoxy)pyrazin-2-yl)vinyl)phenyl)-N,N,5-trimethyl-2-thia-4-azabicyclo[4.1.0]hept-3-ene-1-carboxamide] | 0.0455 | 107 | 0.00798 | – | 0.0049 | – | – |
| CN(C)C(=O)[C@]12C[C@H]1[C@@](C)(c1cc(/C=C(\F)c3ncc(C#N)s3)ccc1F)N=C(N)S2 [Example 219, (1S,5S,6S)-3-amino-5-(5-((Z)-2-(5-cyanothiazol-2-yl)-2-fluorovinyl)-2-fluorophenyl)-N,N,5-trimethyl-2-thia-4-azabicyclo[4.1.0]hept-3-ene-1-carboxamide] | 0.007 | 110 | 0.004 | – | 0.005 | – | – |
| C[C@]1(c2cc(/C=C(\F)c3ccc(C#N)cn3)ccc2F)N=C(N)S[C@@]2(C(=O)N3CCOC[C@@H]3CO)C[C@H]21 [Example 335] | – | 148 | – | 0.0026 | – | 0.186 | 0.0028 |
| C#Cc1ccc(/C(F)=C/c2ccc(F)c([C@@]3(C)N=C(N)S[C@@]4(C(=O)N(C)C)C[C@H]43)c2)nc1 [Example 110, (1S,5S,6S)-3-amino-5-(5-((Z)-2-(5-ethynylpyridin-2-yl)-2-fluorovinyl)-2-fluorophenyl)-N,N,5-trimethyl-2-thia-4-azabicyclo[4.1.0]hept-3-ene-1-carboxamide] | 0.0144 | 403 | 0.00324 | – | 0.0127 | – | – |
| COC[C@]12C[C@H]1[C@@](C)(c1cc(/C=C(\F)c3cnc(OCC4COC4)cn3)ccc1F)N=C(N)S2 [Example 272] | 4.02 | 864 | 3.04 | – | 2.53 | – | – |
| C#CCOc1cnc(/C(F)=C/c2ccc(F)c([C@@]3(C)N=C(N)S[C@@]4(C(=O)N5[C@H]6COC[C@@H]5COC6)C[C@H]43)c2)cn1 [Example 279, ((1S,5S,6S)-3-amino-5-(2-fluoro-5-((Z)-2-fluoro-2-(5-(prop-2-yn-1-yloxy)pyrazin-2-yl)vinyl)phenyl)-5-methyl-2-thia-4-azabicyclo[4.1.0]hept-3-en-1-yl)((1R,5R)-3,7-dioxa-9-azabicyclo[3.3.1]nonan-9-yl)methanone] | 0.176 | 42 | 0.0012 | – | 0.001 | – | – |
| CC(C)[C@H]1CN(C(=O)[C@]23C[C@H]2[C@@](C)(c2cc(/C=C(\F)c4ccc(C#N)cn4)ccc2F)N=C(N)S3)CCO1 [Example 316, 6-((Z)-2-(3-((1S,5S,6S)-3-amino-1-((S)-2-isopropylmorpholine-4-carbonyl)-5-methyl-2-thia-4-azabicyclo[4.1.0]hept-3-en-5-yl)-4-fluorophenyl)-1-fluorovinyl)nicotinonitrile] | 0.033 | 170 | 0.003 | – | 0.007 | – | – |
| C[C@@H]1COC[C@@H](C)N1C(=O)[C@]12C[C@H]1[C@@](C)(c1cc(/C=C(\F)c3ccc(C#N)cn3)ccc1F)N=C(N)S2 [Example 314, 6-((Z)-2-(3-((1S,5S,6S)-3-amino-1-((3R,5R)-3,5-dimethylmorpholine-4-carbonyl)-5-methyl-2-thia-4-azabicyclo[4.1.0]hept-3-en-5-yl)-4-fluorophenyl)-1-fluorovinyl)nicotinonitrile] | 0.24 | 447 | 0.0047 | – | 0.0067 | – | – |
| Cc1noc(COc2cnc(/C(F)=C/c3ccc(F)c([C@@]4(C)N=C(N)S[C@@]5(C(=O)N(C)C)C[C@H]54)c3)cn2)n1 [Example 217, (1S,5S,6S)-3-amino-5-(2-fluoro-5-((Z)-2-fluoro-2-(5-((3-methyl-1,2,4-oxadiazol-5-yl)methoxy)pyrazin-2-yl)vinyl)phenyl)-N,N,5-trimethyl-2-thia-4-azabicyclo[4.1.0]hept-3-ene-1-carboxamide] | 0.07 | 438 | 0.002 | – | 0.002 | – | – |
| CN(C)C(=O)[C@]12C[C@H]1[C@@](C)(c1cc(/C=C(\F)c3ncc4c(n3)OCCO4)ccc1F)N=C(N)S2 [Example 250, (1S,5S,6S)-3-amino-5-(5-((Z)-2-(6,7-dihydro-[1,4]dioxino[2,3-d]pyrimidin-2-yl)-2-fluorovinyl)-2-fluorophenyl)-N,N,5-trimethyl-2-thia-4-azabicyclo[4.1.0]hept-3-ene-1-carboxamide] | 0.076 | 368 | 0.029 | – | 0.017 | – | – |
| CN(C)C(=O)[C@]12C[C@H]1[C@@](C)(c1cc(/C=C(\F)c3cnc(C#N)cn3)cnc1F)N=C(N)S2 [Example 296, (1S,5S,6S)-3-amino-5-(5-((Z)-2-(5-cyanopyrazin-2-yl)-2-fluorovinyl)-2-fluoropyridin-3-yl)-N,N,5-trimethyl-2-thia-4-azabicyclo[4.1.0]hept-3-ene-1-carboxamide] | 0.037 | 290 | 0.0119 | 0.0435 | – | – | – |
| COC[C@]12C[C@H]1[C@@](C)(c1cc(/C=C(\F)c3cnc(OCCF)cn3)ccc1F)N=C(N)S2 [Example 269] | 1.14 | 329 | 0.839 | – | 1.66 | – | – |
| C#CCOc1cnc(/C(F)=C/c2cnc(F)c([C@@]3(C)N=C(N)S[C@@]4(C(=O)OC)C[C@H]43)c2)cn1 [Example 294, (1S,5S,6S)-methyl 3-amino-5-(2-fluoro-5-((Z)-2-fluoro-2-(5-(prop-2-yn-1-yloxy)pyrazin-2-yl)vinyl)pyridin-3-yl)-5-methyl-2-thia-4-azabicyclo[4.1.0]hept-3-ene-1-carboxylate methanone] | 2.76 | 400 | 0.0089 | – | 0.0949 | – | – |
| Cc1nnc(COc2cnc(/C(F)=C/c3ccc(F)c([C@@]4(C)N=C(N)S[C@@]5(C(=O)N(C)C)C[C@H]54)c3)cn2)o1 [Example 216, (1S,5S,6S)-3-amino-5-(2-fluoro-5-((Z)-2-fluoro-2-(5-((5-methyl-1,3,4-oxadiazol-2-yl)methoxy)pyrazin-2-yl)vinyl)phenyl)-N,N,5-trimethyl-2-thia-4-azabicyclo[4.1.0]hept-3-ene-1-carboxamide] | 0.072 | 391 | 0.007 | – | 0.005 | – | – |
